Structures can show the parent of a compound that is named as a salt.

For the experiment, the system named is guinea-pig teania coli. The experiment in a line: Pharmacological test I: calcium-antagonistic activity, inhibition of Ca++-induced contraction of isolated guinea-pig teania coli. As to conditions: Cavia porcellus, 5 min, Ca++-free-high-K Krebs, 5 min exposure before CaCl2 (3×10^-4 M), 32° C., read-out: Calcium-antagonistic activity IC50 (concentration eliciting 50% inhibition of Ca++-induced contraction). The method, then: The action potentials on the smooth muscles of uterus, teania coli and portal vein are dependent on calcium ion, and therefore these smooth muscle preparations are useful for screening of calcium antagonists. We measured the calcium-antagonistic activity of the compounds by the method using guinea-pig teania coli preparation.
Isolated guinea-pig teania coli was suspended in a organ bath filled with Krebs solution at 32° C. and bubbled with 5% carbon dioxide in oxygen. After equilibration, the muscle was washed with Ca^++ -free Krebs solution, and when the muscle had relaxed to the basal level, it was suspended in Ca^++ -free-high-K Krebs solution.
The muscle was exposed to test compounds for 5 minutes before addition of CaCl2, and the contraction induced by CaCl2 (3×10^-4 M) was recorded isotonically. The calcium-antagonistic activity was represented by the concentration of test compound which elicited 50% inhibition of Ca^++ -induced contraction (IC50).
Take `COc1ccc(OC)c(C2(CCCN(C)C3CCCCC3)Sc3ccccc3N(C)C2=O)c1` (centres unmarked) [compound 80, 3,4-Dihydro-2-(2,5-dimethoxyphenyl)-4-methyl-2-[3-(N-methylcyclohexylamino)propyl]-3-oxo-2H-1,4-benzothiazine oxalate]: the IC50 turned out to be 0.71 µM.
For `COc1ccc(OC)c(C2(CCCN(C)CCc3cc(OC)c(OC)c(OC)c3)Sc3ccccc3N(C)C2=O)c1` (centres unmarked) [compound 83, 3,4-Dihydro-2-(2,5-dimethoxyphenyl)-4-methyl-2-[3-(N-methyl-3,4,5-trimethoxyphenethylamino)propyl[-3-oxo-2H-1,4-benzothiazine oxalate], the IC50 turned out to be 0.86 µM.
The value for `COc1ccc(CCN(C)CCCCOc2ccc(C3(SC)Sc4ccccc4N(C)C3=O)cc2)cc1OC` (centres unmarked) [compound 103, 3,4-Dihydro-4-methyl-2-[4-[4-(N-methyl-3,4-dimethoxyphenethylamino)butoxy]phenyl]-2-methylthiol-3-oxo-2H-1,4l-benzothiazine hydrochloride] was 0.53 µM; that for `COc1ccc(OCCCN(C)CCc2ccc(OC)c(OC)c2)c(C2(SC)Sc3ccccc3N(C)C2=O)c1` (centres unmarked) [compound 131, 3,4-Dihydro-2-[5-methoxy-2-[3-(N-methyl-3,4-dimethoxyphenethylamino)propoxy]phenyl]-4-methyl-2-methylthio-3-oxo-2H-1,4-benzothiazine hydrochloride] was 0.63 µM.
The value for `COc1ccc(OCCCCN(C)CCc2cc(OC)c(OC)c(OC)c2)c(C2(SC)Sc3ccccc3N(C)C2=O)c1` (centres unmarked) [compound 142, 3,4-Dihydro-2-[5-methoxy-2-[4-(N-methyl-3,4,5-trimethoxyphenethylamino)butoxy]phenyl]-4-methyl-2-methylthio-3-oxo-2H-1,4-benzothiazine hydrochloride] was 0.63 µM; that for `COc1ccc(OCCCN(C)CCOc2ccc3c(c2)OCO3)c(C2(OC)Sc3ccccc3N(C)C2=O)c1` (centres unmarked) [compound 147, 3,4-Dihydro-2-methoxy-2-[5-methoxy-2-[3-[N-methyl-2-(3,4-methylenedioxyphenoxy)ethylamino]propoxy]phenyl]-4-methyl-3-oxo-2H-1,4-benzothiazine hydrochloride] was 0.42 µM; that for `COc1ccc(OCCCCN(C)CCOc2ccc3c(c2)OCO3)c(C2(OC)Sc3ccccc3N(C)C2=O)c1` (centres unmarked) [compound 148, 3,4-Dihydro-2-methoxy-2-[5-methoxy-2-[4-[N-methyl-2-(3,4-methylenedioxyphenoxy)ethylamino]butoxy]phenyl]-4-methyl-3-oxo-2H-1,4-benzothiazine hydrochloride] was 0.38 µM.
To `COc1ccc(OCCCCN(C)CCOc2ccc3c(c2)OCO3)c(C2(SC)Sc3ccccc3N(C)C2=O)c1` (centres unmarked) [compound 150, 3,4-Dihydro-2-[5-methoxy-2-[4-[N-methyl-2-(3,4-methylenedioxyphenoxy)ethylamino]butoxy]phenyl]-4-methyl-2-methylthio-3-oxo-2H-1,4-benzothiazine hydrochloride hemihydrate] belongs 0.89 µM.

These data come from patent publication US4739050A, “2-phenyl-1,4-benzothiazin-3-one derivatives” (Santen Pharmaceutical Co., Ltd., priority 1985, dated 1988).
